Results as given in patent publication US9150608B2, “Neuro-protective compounds and their use” (Biotechnology Research Corp. Ltd., priority 2010, dated 2015).

Assays:
[1] = test system: Aβ25-35-treated primary cortical neurons; test: Cortical neuron survival assay with amyloid-beta peptide insult (MTT); assay type: cell-based, rat; details: 50 μM, except GAG-C69 at 30 μM; Aβ25-35 10 μM (FIG. 19)
Procedure: FIG. 4. […] After overnight incubation, the MTT assay was performed. Cell survival was calculated as a percentage compared to vehicle control (“CTL no Abeta”).
Exogenous addition of amyloid beta peptide (Aβ) initiates cell death of neuronal cultures via apoptosis.
(§1) The cells were then incubated with test samples and amyloid-beta peptide fragment 25-35 (Aβ, 10 μM, Sigma) in growth medium. A tetrazole, 3-(4,5-Dimethylthiazol-2-yl)-2,5-diphenyltetrazolium bromide (MTT, 5 mg/ml) was added to the medium at a ratio of 1:10 after 24-hr incubation. MTT is reduced by living cells into purple formazan and further solubilized in 20% SDS solution; therefore, the colored solution was measured by spectrophotometer and cell viability was quantified.

[2] = test system: phosphorylated ERK, CREB, Akt, P38, MEK in cortical neurons; test: Western blot detection of signaling proteins in cortical neurons; assay type: cell-based, rat; details: cortical neurons 7DIV
[3] = test system: NMDA receptor-induced excitotoxicity in primary cortical neuronal cells; test: NMDA survival assay (LDH release); details: 30-50 μM pre-treated 2 hours, NMDA 20 min (FIG. 17)
Procedure: Embryonic rat cortical neurons (11 DIV) were pre-treated with various concentrations of AG—0 (0.1 -30 μg/mL) and then co-incubated with NMDA (20 μM). After 20 min, the medium was replaced with fresh medium, and after overnight incubation lactate dehydrogenase (LDH) released into the medium was measured. Cell death was calculated as a percentage compared to solvent control (“CTL without NMDA”). Assays were conducted in duplicate and repeated at least twice. *=P<0.05.
Cortical neurons were plated on 48-well plate (Nunc) at a density of 1.1×10^5 cells per well and cultured for 11-12 days (11-12 DIV). Neurons were pre-treated with the test compounds for 2 hours prior to N-Methyl-D-Aspartate (NMDA, Sigma) or glutamate (MSG, Sigma) treatment. Briefly, the neurons were rinsed with Locke's solution (5 mM potassium chloride, 128 mM sodium chloride, 2.7 mM calcium chloride, 1 mM di-sodium hydrogen orthophosphate, 5 mM HEPES and 10 mM glucose in Milli-Q water) without Mg^2+, followed by incubation in Locke's solution with addition of glycine (0.1 μM) for 15 minutes. After the incubation, the neurons were co-treated with the test compound (dissolved in Locke's plus glycine solution) and NMDA (20 μM) or glutamate for 20 min. Neurons were then rinsed with Locke's solution containing Mg^2+ and replaced with fresh growth medium. Cell death was assayed and quantified using the lactate dehydrogenase release assay (Cytotoxicity Detection Kit, Roche). Data was compared to a DMSO vehicle control and represented in mean±SEM. The student t-test was used for statistical analysis.

[4] = test system: rat cortical neurons cultured in the absence of B27; test: Cortical neuron survival assay with B27 withdrawal (MTT); assay type: cell-based; details: for cell survival of cortical neurons in the absence of B27 (MTT): 30 μM, pre-treated 24 hours (FIG. 15); for concentration showing neuroprotective effect in the absence of B27 (MTT): primary cortical neurons 7DIV, dose-dependent study 1-30 μM
Procedure: FIG. 2. Adelostemma gracillimum refined fraction promotes rat cortical neuron survival against B27 withdrawal. Cortical neurons isolated from embryonic day 18 rats were cultured in Neurobasal medium supplemented with 2 % B27. […] A MTT assay was performed 24 hours later. Cell survival is presented as a percentage compared to a DMSO control in the presence of B27 (“CTL with B27”). Assays were conducted in triplicate and repeated at least twice. *=P<0.05.
Primary cortical neurons were cultured in Neurobasal medium and supplemented with B27, a proprietary formula of Life Technologies. The combination of Neurobasal medium and B27 provides a stable growth environment for primary neurons to maturity in vitro. Neurons undergo apoptosis or cell death in the absence of B27. To study the neuroprotective effect of Adelostemma gracillimum refined fraction, neurons of 7DIV were treated with AG-0 and cell survival was measured as mitochondrial activity by the MTT assay.
as §1, with “washed with Hanks' solution twice and replaced” for “incubated”, “that were serial diluted” for “and amyloid-beta peptide fragment 25-35 (Aβ, 10 μM, Sigma)”, “Neurobasal” for “growth”, “a 2-day” for “24-hr”

[5] = test system: cyclic AMP response (CRE) element; test: CRE-dependent transcription assay (luciferase); assay type: cell-based, rat; details: hippocampal neurons 12DIV, 50 μM, 6 hours
Procedure: FIG. 41. GAG compounds enhance CRE-dependent transcription activity. GAG-C14 (a), GAG-C53 (b), GAG-C63 (c), GAG-C69 (d), GAG-C84 (e), GAG-C111 (f), GAG-C122 (g), GAG-C123 (h), and GAG-C129 (i) induce CRE-dependent transcriptional activity in cultured hippocampal neurons. On the day of cell seeding, hippocampal neurons were transfected with a firefly luciferase reporter plasmid containing cyclic AMP response (CRE)-element. The cells at 12 DIV were then treated with 50 μM of AG compounds for 6 hours. Data are mean±SEM (n=3-4), *=P<0.05, **=P<0.01, and ***=P<0.005 versus vehicle-treated cells (0 μM), student's t test.
Cultured hippocampal neurons were transfected with a firefly luciferase reporter plasmid containing a cyclic AMP response (CRE) element. At 12DIV, the cells were treated with 50 μM of compound for 6 hours, then CRE-dependent transcription activity was assayed by measuring luciferase levels.
Freshly isolated embryonic cortical neurons were transfected with a luciferase reporter gene (Cre-Luc) linked to CREB activation following the ACM lipofectamine method using Lipofectamine 2000, a cationic liposome based reagent (Invitrogen). […] Transfection was performed using 1 μL Lipofectamine 2000 and 0.4 μg DNA per well. Neurons were then treated with test samples for time periods of 6 hours. After treatment, the cells were washed with ice-cold DPBS and 100 μL of 1× luciferase lysis buffer (Promega) was added. The plates were placed in −20° C. to freeze the cells, after which they were thawed to facilitate lysis. The lysates were transferred onto white bottom plates and assayed for renilla luciferase using the luciferase assay kit (Promega). Increased CREB activation in the neurons leads to an enhanced luciferase production and this was quantified using a Promega GloMax™ 96 microplate luminometer. […] BDNF and rolipram were used as positive controls.

Row | Compound | cell survival of cortical neurons treated with Aβ25-35 (MTT) [1] | neuronal survival following NMDA treatment (LDH) [3] | further results
1 | COc1cc([C@@H]2c3cc(OC)c(O)cc3C=C(C)[C@H]2C)ccc1O [GAG-C70, (7′α,8′β)-4,4′-dihydroxyl-3,3′-dimethyoxyl-6,7′-cycloligane-7-en] | promoted cell survival | promoted neuronal survival | ERK phosphorylation ([2]; 0.1-10 μM, 15 min (FIGS. 16, 18, 20)): induced ERK phosphorylation
2 | C/C=C/c1ccc(OC(C)C(O)c2cc(OC)c(O)c(OC)c2)c(OC)c1 (stereo not shown) [GAG-C121, 3,3′,5-trimethoxy-4,7-dihydroxyl-(7′E)-(8-O-4′)-neolignan-7′en] | promoted cell survival |  | 
3 | COc1cc(C)cc(C(O)C(O)c2cc(C)ccc2OC)c1 (stereo not shown) [GAG-C80, 2-(2-methoxy-5-methylphenyl)-1-(3-methoxy-5-methylphenyl)-ethane-1,2-diol] |  |  | cell survival of cortical neurons in the absence of B27 (MTT) [4]: promoted cell survival; concentration showing neuroprotective effect in the absence of B27 (MTT) [4]: 10 to 30 µM
4 | 12-O-cis/trans-cinnamoyl-20-acetyl-8,14-seco-sarcostin 3-O-β-D-Cymaropyranosyl-(1→4)-β-D-Oleandropyranosyl-(1→4)-O-D-Oleandropyranoside [GAG-C90] |  | promoted neuronal survival | 
5 | CC(C)=CCOc1c2occc2cc2ccc(=O)oc12 [GAG-C81, 8-(3-methylbut-2-enyloxy)-psoralen] |  |  | cell survival of cortical neurons in the absence of B27 (MTT) [4]: promoted cell survival; neuroprotective effect in the absence of B27 (MTT) ([4]; 1-50 μM): exhibited neuroprotective effects in a dose-dependent manner
6 | CC1CC(C)(C)C2C=C(CC/C=C/C1=O)C(=O)O2 (stereo not shown) [GAG-C65, 8-oxohumula-2, 6(E)-dien-1,12-olide] |  | promoted neuronal survival | 
7 | COC1CC(OC2C(C)OC(OC3C(C)OC(OC4C(C)OC(OC5CC[C@@]6(C)C(=CC[C@]7(O)C6C[C@@H](OC(=O)/C=C(\C)C(C)C)[C@@]6(C)[C@]7(O)CC[C@@]6(O)C(C)=O)C5)CC4OC)CC3OC)CC2OC)OC(C)C1O (stereo partly drawn) [GAG-C92, Caudatin 3-O-β-D-Cymaropyranosyl-(1→4)-β-D-Cymaropyranosyl-(1→4)-β-D-Oleandropyranosyl-(1→4)-β-D-Oleandropyranoside] |  | promoted neuronal survival | 
8 | COc1cc(C2c3cc(OC)c(O)cc3C3Oc4c(C(C)=O)ccc(O)c4CC3C2CO)ccc1O (stereo not shown) [GAG-C61, 4-hydroxy-3′-methoxy-(7′E)-5′7-epoxy-8,4′-oxyneolignane-7′ en] |  | promoted neuronal survival | 
9 | COc1cc(C2Oc3c(OC)ccc(C(C)=O)c3C2C)ccc1O (stereo not shown) [GAG-C51, 3-methoxyl-4,4′-dihydroxy-1″-athanone-3′7-epoxy-8,2″-neolignane] |  | promoted neuronal survival | 
10 | C[C@]12CC[C@H]3[C@@H](C=CC4=CC(=O)CC[C@@]43C)[C@@H]1CC(C(=O)O)C2 (stereo partly shown) [GAG-C63, 4,6-diene-16-carboxylic acid-3-oxo-androstane] |  |  | CRE-dependent transcription activity (luciferase) [5]: enhances CRE-dependent transcription
11 | CC1(C)CC[C@@]2(C(=O)O)CC[C@]3(C)C(=CCC4[C@@]5(C)CCC(O)C(C)(CO)C5CC[C@]43C)C2C1 (stereo partly drawn) [GAG-C74, 3β,23-dihydroxyolean-12-en-28-oic acid] | promoted cell survival |  | 
12 | C/C=C/c1cc(O)c(OC(C)C(O)c2cc(OC)c(O)c(OC)c2)c(OC)c1 (stereo not shown) [GAG-C59, 4,5′,7-trihydroxy-3, 3′,5-trimethyoxyl-hydroxy-(7′E)-(8-O-4)-neolignan-7′ en] | promoted cell survival |  | 
13 | 12-O-cis/trans-cinnamoyl-20-acetyl-8,14-seco-sarcostin 3-O-β-D-Cymaropyranosyl-(1→4)-β-D-Cymaropyranosyl-(1→4)-β-D-Digitoxopyranosyl-(1→4)-β-D-Cymaropyranosyl-(1→4)-β-D-Oleandropyranoside [GAG-C104] | promoted cell survival | promoted neuronal survival | 
14 | C/C=C/c1ccc(OC(C)C(O)c2ccc(O)c(O)c2)c(OC)c1 (stereo not shown) [GAG-C13, 3,4,7-trihydroxyl-3′-methoxy-(7′E)-(8-O-4′)-neolignan-7′-en] | promoted cell survival | promoted neuronal survival | cell survival of cortical neurons in the absence of B27 (MTT) [4]: promoted cell survival
15 | (K)-methyl 15-hydroxy-15-methoxy-12-oxopentadec-13-enoate [GAG-C78] |  |  | cell survival of cortical neurons in the absence of B27 (MTT) [4]: promoted cell survival; concentration showing neuroprotective effect in the absence of B27 (MTT) [4]: 10 to 30 µM; ERK phosphorylation time course ([2]; 30 μM): significantly induced ERK phosphorylation in cortical neurons from 15 min and persistently to 180 min; CREB phosphorylation ([2]; 30 μM, 15 min of incubation): induced CREB phosphorylation
16 | 12-O-cis/trans-cinnamoyl-20-acetyl-8,14-seco-sarcostin 3-O-β-D-Cymaropyranosyl-(1→4)-β-D-Digitoxopyranosyl-(1→4)-β-D-Oleandropyranosyl-(1→4)-β-D-Oleandropyranoside [GAG-C102] |  | promoted neuronal survival | 
17 | COc1c2ccoc2c(OCC=C(C)C)c2oc(=O)ccc12 [GAG-C82, 8-(3-methylbut-2-enyloxy)-5-methoxyl-psoralen] |  |  | cell survival of cortical neurons in the absence of B27 (MTT) [4]: promoted cell survival
18 | COC1CC(OC2C(C)CC(OC3C(C)OC(OC4CC[C@@]5(C)C(=CC[C@]6(O)C5C[C@@H](OC(=O)C=Cc5ccccc5)[C@@]5(C)[C@]6(O)CC[C@@]5(O)C(C)=O)C4)CC3OC)CC2OC)OC(C)C1O (stereo partly drawn) [GAG-C87, Ikemagenin 3-O-β-D-Cymaropyranosyl-(1→4)-β-D-Oleandropyranosyl-(1→4)-β-D-Oleandropyranoside] |  | promoted neuronal survival | 
19 | 12-O-cis/trans-cinnamoyl-20-acetyl-8,14-seco-sarcostin 3-O-β-D-Cymaropyranosyl-(1→4)-β-D-Cymaropyranosyl-(1→4)-β-D-Oleandropyranosyl-(1→4)-β-D-Oleandropyranoside [GAG-C96] |  | promoted neuronal survival | 
20 | 12-O-cis/trans-cinnamoylsacrostin 3-O-β-D-Cymaropyranosyl-(1→4)-β-D-Oleandropyranosyl-(1→4)-β-D-Oleandropyranoside [GAG-C86] |  | promoted neuronal survival | 
21 | 3-O-β-D-Cymaropyranose-(1→4)-β-D-Digitoxopyranose-12-trans-cinnamyl-20-acetyl-8,14-seco-sacrostin [GAG-C30] | promoted cell survival |  | 
